According to patent US10100077B2, “6-aryl-9-glycosylpurines and use thereof” (UNIVERZITA PALACKEHO V OLOMOUCI, priority 2014, dated 2018):

Tests used:
[1] = tested on: Normal human dermal fibroblasts (NHDF); assay: In vitro UVB photoprotection test (neutral red); assay type: cell-based; conditions: UVB 400 mJ/cm^2, 0.9; 1.8; 3.9 a 7.8 μmol/l, 60 minutes pre-incubation
Description: Normal human dermal fibroblasts (NHDF) were used as an in vitro model. Cells were isolated from tissue specimens obtained from healthy patients undergoing plastic surgery at the Department of Plastic and Aesthetic Surgery (University Hospital Olomouc). The use of skin tissue was in accordance with the Ethics Committee of the University Hospital and Faculty of Medicine and Dentistry, Palacký University, Olomouc and all patients signed written informed consent. Fibroblasts were used between the 2nd and 4th passage. For all experiments the fibroblasts were seeded onto 96-well plates at a density of 0.8×10^5 cells/ml (0.2 ml per well) of cultivation medium (DMEM supplemented with foetal calf serum (10%, v/v), penicillin […] and streptomycin (100 U/ml)).
Test compounds included 6-(3-methoxybenzylamino)-9-β-D-arabinofuranosylpurine. […] Intensity of UVA or UVB radiation was evaluated before each irradiation by UVA- or UVB-meter. […] After 24 hours (37° C., 5% CO2) cell damage was evaluated by neutral red (NR) incorporation into viable cells. […] After 5 minutes of intensive shaking absorbance was measured at 540 nm. […] Photoprotective effect was evaluated by comparison of experimental data (absorbance) of test compounds with a positive control and a negative control (according to the following equation: […]

[2] = tested on: Normal human dermal fibroblasts (NHDF); assay: In vitro phototoxicity test (UVA, neutral red); assay type: cell-based; conditions: UVA 5.0 J/cm^2, 0.9-125 μmol/l or 3.9-500 μmol/l, neutral red after 24 hours
Procedure: Phototoxic potential of test compound was determined by modified in vitro test validated phototoxicity evaluation (Spielmann H, Balls M, Dupuis J, Pape W J, Pechovitch G, de Silva O, Holzhater H G, Clothier R, Desolle P, Gerberick F, Liebsch M, Lovell W W, Maurer T, Pfannenbecker U, Potthast J M, Csato M, Sladowski D, Steiling W, Brantom P., Toxicol In Vitro. 1998 Jun. 1; 12(3):305-27). Normal human dermal fibroblasts (NHDF) were used as an in vitro model. Cells were isolated from tissue specimens obtained from healthy patients undergoing plastic surgery at the Department of Plastic and Aesthetic Surgery (University Hospital Olomouc). The use of skin tissue was in accordance with the Ethics Committee of the University Hospital and Faculty of Medicine and Dentistry, Palacký University, Olomouc and all patients signed written informed consent. Fibroblasts were used between the 2nd and 4th passage. […]
Test compound was 6-(3-methoxybenzylamino)-9-β-D-arabinofuranosylpurine. […] Intensity of UVA radiation was evaluated before each irradiation by UVA-meter. […] After 24 hours (37° C., 5% CO2) cell damage was evaluated by neutral red (NR) incorporation into viable cells. […] After 5 minutes of intensive shaking absorbance was measured at 540 nm. […] Phototoxic effect was evaluated as % of viability of control cells that was calculated from experimental data (absorbance) according to the following equation: […]

COc1cccc(CNc2ncnc3c2ncn3[C@@H]2O[C@H](CO)[C@@H](O)[C@@H]2O)c1 [6-(3-methoxybenzylamino)-9-β-D-arabinofuranosylpurine]
viability after UVB vs DMSO control (photoprotection) [1]: higher viability | phototoxic effect (viability after UVA) [2]: non-phototoxic
